According to ChEMBL document CHEMBL1145783, “Development of an orexin-2 receptor selective agonist, [Ala(11), D-Leu(15)]orexin-B” (Bioorg Med Chem Lett, 2003):

How the values were obtained:
[1] = biological target: T1, Orexin/Hypocretin receptor type 1 (Homo sapiens) (UniProt O43613); test: Agonist activity against human orexin 1 receptor; EC50; nM; assay type: functional
T1 sequence (whole entry): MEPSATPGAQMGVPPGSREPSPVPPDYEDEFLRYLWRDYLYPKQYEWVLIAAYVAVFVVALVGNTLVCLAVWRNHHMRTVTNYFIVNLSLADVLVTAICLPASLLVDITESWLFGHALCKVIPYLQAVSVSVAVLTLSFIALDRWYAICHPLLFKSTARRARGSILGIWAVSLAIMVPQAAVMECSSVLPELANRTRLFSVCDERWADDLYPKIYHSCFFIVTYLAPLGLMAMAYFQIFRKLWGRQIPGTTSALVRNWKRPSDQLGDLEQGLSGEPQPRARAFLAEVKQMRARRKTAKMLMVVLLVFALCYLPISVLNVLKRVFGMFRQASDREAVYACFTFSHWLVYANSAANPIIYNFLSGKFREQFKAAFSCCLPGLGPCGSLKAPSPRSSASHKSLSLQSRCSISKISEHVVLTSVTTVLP

[2] = biological target: T2, Orexin receptor type 2 (Homo sapiens) (UniProt O43614); test: Agonist activity against human orexin 2 receptor; EC50; nM; assay type: functional
T2 sequence (whole entry): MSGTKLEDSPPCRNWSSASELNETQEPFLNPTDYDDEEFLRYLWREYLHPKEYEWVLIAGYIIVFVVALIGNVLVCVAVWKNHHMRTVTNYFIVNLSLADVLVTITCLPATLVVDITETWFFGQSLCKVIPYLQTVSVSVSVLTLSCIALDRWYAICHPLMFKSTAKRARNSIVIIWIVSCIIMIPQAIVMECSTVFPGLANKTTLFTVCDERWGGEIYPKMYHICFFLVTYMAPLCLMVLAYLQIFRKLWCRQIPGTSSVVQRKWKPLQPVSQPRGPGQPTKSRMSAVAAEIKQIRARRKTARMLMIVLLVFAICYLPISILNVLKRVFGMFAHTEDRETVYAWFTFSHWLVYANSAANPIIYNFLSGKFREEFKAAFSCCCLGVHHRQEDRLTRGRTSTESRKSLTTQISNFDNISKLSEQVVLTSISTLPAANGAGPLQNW

Homo sapiens = organism: Homo sapiens; test: (§1) Agonist selectivity for orexin receptor 1 versus orexin receptor 2; assay type: functional
[3] = as §1; assay type: functional, Homo sapiens

Row | EC50 [1] [nM] | EC50 [2] [nM] | selectivity (Homo sapiens) | selectivity [3] | Compound
1 | 52 | 0.13 | 400 | – | CC[C@H](C)[C@H](NC(=O)[C@H](CC(C)C)NC(=O)[C@@H](NC(=O)[C@@H](N)CCSC)[C@@H](C)O)C(=O)NCC(=O)N[C@@H](C)C(=O)N[C@@H](C)C(=O)N[C@@H](Cc1c[nH]cn1)C(=O)N[C@@H](CC(N)=O)C(=O)NCC(=O)N[C@@H](CO)C(=O)N[C@@H](C)C(=O)N[C@@H](CCC(N)=O)C(=O)N[C@H](CC(C)C)C(=O)N[C@@H](CC(C)C)C(=O)N[C@@H](CCCN=C(N)N)C(=O)N[C@@H](CCC(N)=O)C(=O)N[C@@H](C)C(=O)N[C@@H](CCCN=C(N)N)C(=O)NCC(=O)N[C@@H](CCC(N)=O)C(=O)N[C@@H](CC(C)C)C(=O)NCC(=O)N1CCC[C@H]1C(=O)N1CCC[C@H]1C(=O)NCC(=O)N[C@@H](CO)C(=O)N[C@@H](CCCN=C(N)N)C(N)=O
2 | 270 | 1.9 | 140 | – | CC[C@H](C)[C@H](NC(=O)[C@H](CC(C)C)NC(=O)[C@@H](NC(=O)[C@@H](N)CCSC)[C@@H](C)O)C(=O)NCC(=O)N[C@@H](C)C(=O)N[C@@H](C)C(=O)N[C@@H](Cc1c[nH]cn1)C(=O)N[C@@H](CC(N)=O)C(=O)NCC(=O)N[C@@H](CO)C(=O)N[C@@H](C)C(=O)N[C@@H](CCC(N)=O)C(=O)N[C@@H](CC(C)C)C(=O)N[C@H](CC(C)C)C(=O)N[C@@H](CCCN=C(N)N)C(=O)N[C@@H](CCC(N)=O)C(=O)N[C@@H](C)C(=O)N[C@@H](CCCN=C(N)N)C(=O)NCC(=O)N[C@@H](CCC(N)=O)C(=O)N[C@@H](CC(C)C)C(=O)NCC(=O)N1CCC[C@H]1C(=O)N1CCC[C@H]1C(=O)NCC(=O)N[C@@H](CO)C(=O)N[C@@H](CCCN=C(N)N)C(N)=O
3 | 0.83 | 0.081 | 10 | 10 | CC[C@H](C)[C@H](NC(=O)[C@H](CC(C)C)NC(=O)[C@@H](NC(=O)[C@@H](N)CCSC)[C@@H](C)O)C(=O)NCC(=O)N[C@@H](C)C(=O)N[C@@H](C)C(=O)N[C@@H](Cc1c[nH]cn1)C(=O)N[C@@H](CC(N)=O)C(=O)NCC(=O)N[C@@H](CO)C(=O)N[C@@H](C)C(=O)N[C@@H](CCC(N)=O)C(=O)N[C@@H](CC(C)C)C(=O)N[C@@H](CC(C)C)C(=O)N[C@@H](CCCN=C(N)N)C(=O)N[C@@H](CCC(N)=O)C(=O)N[C@@H](CC(C)C)C(=O)N[C@@H](CCCN=C(N)N)C(=O)NCC(=O)N[C@@H](CCC(N)=O)C(=O)N[C@@H](CC(C)C)C(=O)NCC(=O)N1CCC[C@H]1C(=O)N1CCC[C@H]1C(=O)NCC(=O)N[C@@H](CO)C(=O)N[C@@H](CCCN=C(N)N)C(N)=O [OREXIN B]
